Experimental data taken from patent US20200009168A1, “MICROBIOME REGULATORS AND RELATED USES THEREOF” (KALEIDO BIOSCIENCES, INC., priority 2015, published 2020).

Tests used:
Assay type in all cases: cell-based
[1] = tested on: Clostridium scindens ATCC 35704 "CSC.32"; experiment: Sugar-supported growth of commensal bacteria, CSC.32; conditions: 0.5% w/v sugar, 37° C., 18-24 hours, anaerobic; OD600 divided by OD600 with 0.5% w/v dextrose
Experimental: (§1) An in vitro assay was performed to assess the ability of various bacterial strains, including commensals of the gastrointestinal tract, to utilize different sugars as growth substrates. This assay was designed to assess the ability of selected natural monosaccharides, disaccharides and synthetic sugars to promote the growth of microbiota associated with a healthy state. Bacterial strains were handled at all steps in an anaerobic chamber (AS-580, Anaerobe Systems) featuring a palladium catalyst. The chamber was initially made anaerobic by purging with an anaerobic gas mixture of 5% hydrogen, 5% carbon dioxide and 90% nitrogen and subsequently maintained in an anaerobic state using this same anaerobic gas mixture. Anaerobicity of the chamber was confirmed daily using Oxoid anaerobic indicator strips that change color in the presence of oxygen. All culture media, assay plates, other reagents and plastic consumables were pre-reduced in the anaerobic chamber for 24-48 hours prior to contact with bacteria. Sugars were prepared at 5% w/v in water, filter-sterilized and added to Costar 3370 assay plates for a final concentration of 0.5% w/v in the assay, with each microbiome regulator assayed in two non-adjacent wells and dextrose and water supplied as positive and negative controls.
(§2) Bacterial isolates were obtained from the American Type Culture Collection (ATCC) and Leibniz Institute DSMZ-German Institute of Microorganisms and Cell Cultures (DSMZ). Cultures of the Bacteroidetes Bacteroides caccae ATCC 43185 “BCA.26”, Bacteroides thetaiotaomicron ATCC 29741 “BTH.8”, Bacteroides cellulosilyticus DSM 14838 “BCE.71”, Parabacteroides distasonis ATCC 8503 “PDI.6” and Prevotella copri DSM 18205 “PCO.72”; the Clostridiales Clostridium scindens ATCC 35704 “CSC.32”, Dorea formicigenerans ATCC 27755 “DFO.36” and Ruminococcus obeum ATCC 29714 “ROB.74”; and the Bifidobacteria Bifidobacterium longum ATCC 15707 “BLO.16” and Bifidobacterium longum DSM 20088 “BLO.83”, were grown anaerobically in Chopped Meat Glucose broth (CMG, Anaerobe Systems), a pre-reduced enriched medium including lean ground beef, enzymatic digest of casein, yeast extract, potassium phosphate, dextrose, cysteine, hemin and Vitamin K1, for 18-48 hours at 37° C. Inocula were prepared by determining the optical density of each culture at […] (OD600) in a Costar 3370 polystyrene 96-well flat-bottom assay plate using a Biotek Synergy 2 plate reader with Gen5 2.0 All-In-One Microplate Reader Software according to manufacturer's protocol, and diluting the cells to OD600 0.01 final in defined and semi-defined media that were prepared without sugars. D. formicigenerans, P. distasonis and B. longum isolates were tested in 900 mg/L sodium chloride, 26 mg/L calcium chloride dihydrate, 20 mg/L magnesium chloride hexahydrate, 10 mg/L manganese chloride tetrahydrate, 40 mg/L ammonium sulfate, 4 mg/L iron sulfate heptahydrate, 1 mg/L cobalt chloride hexahydrate, 300 mg/L potassium phosphate dibasic, 1.5 g/L sodium phosphate dibasic, 5 g/L sodium bicarbonate, 0.125 mg/L biotin, 1 mg/L pyridoxine, […], 75 mg/L histidine, 75 mg/L glycine, 75 mg/L tryptophan, 150 mg/L arginine, 150 mg/L methionine, 150 mg/L threonine, 225 mg/L valine, 225 mg/L isoleucine, 300 mg/L leucine, 400 mg/L cysteine, and 450 mg/L proline (Theriot C M et al. Nat Commun. 2014; 5:3114), supplemented with 0-3.5% (v/v) CMG. B. thetaiotaomicron, B. caccae and B. cellulosyliticus were tested in 100 mM potassium phosphate buffer (pH 7.2), 15 mM sodium chloride, 8.5 mM ammonium sulfate, 4 mM L-cysteine, 1.9 μM hematin, 200 μM L-histidine, 100 μM magnesium chloride, 1.4 μM iron sulfate heptahydrate, 50 μM calcium chloride, 1 μg/mL vitamin K3 and 5 ng/mL vitamin B12 (Martens E C et al. Cell Host & Microbe 2008; 4, 447-457). […]

[2] = tested on: Bacteroides caccae ATCC 43185 "BCA.26"; experiment: Sugar-supported growth of commensal bacteria, BCA.26; conditions: 0.5% w/v sugar, 37° C., 18-24 hours, anaerobic; OD600 divided by OD600 with 0.5% w/v dextrose
Experimental: as §1, §2

[3] = tested on: Prevotella copri DSM 18205 "PCO.72"; experiment: Sugar-supported growth of commensal bacteria, PCO.72; conditions: 0.5% w/v sugar, 37° C., 18-24 hours, anaerobic; OD600 divided by OD600 with 0.5% w/v dextrose
Experimental: as §1, §2

[4] = tested on: Bacteroides cellulosilyticus DSM 14838 "BCE.71"; experiment: Sugar-supported growth of commensal bacteria, BCE.71; conditions: 0.5% w/v sugar, 37° C., 18-24 hours, anaerobic; OD600 divided by OD600 with 0.5% w/v dextrose
Experimental: as §1, §2

[5] = tested on: Parabacteroides distasonis ATCC 8503 "PDI.6"; experiment: Sugar-supported growth of commensal bacteria, PDI.6; conditions: 0.5% w/v sugar, 37° C., 18-24 hours, anaerobic; OD600 divided by OD600 with 0.5% w/v dextrose
Experimental: as §1, §2

[6] = tested on: Bacteroides thetaiotaomicron ATCC 29741 "BTH.8"; experiment: Sugar-supported growth of commensal bacteria, BTH.8; conditions: 0.5% w/v sugar, 37° C., 18-24 hours, anaerobic; OD600 divided by OD600 with 0.5% w/v dextrose
Experimental: as §1, §2

panel of 10 commensals = experiment: Sugar-supported growth, whole panel of 10 commensals; conditions: 0.5% w/v sugar, summary in words
Experimental: as §1, §2

[7] = tested on: Bifidobacterium longum ATCC 15707 "BLO.16"; experiment: Sugar-supported growth of commensal bacteria, BLO.16; conditions: 0.5% w/v sugar, 37° C., 18-24 hours, anaerobic; OD600 divided by OD600 with 0.5% w/v dextrose
Experimental: as §1, §2

[8] = tested on: Dorea formicigenerans ATCC 27755 "DFO.36"; experiment: Sugar-supported growth of commensal bacteria, DFO.36; conditions: 0.5% w/v sugar, 37° C., 18-24 hours, anaerobic; OD600 divided by OD600 with 0.5% w/v dextrose
Experimental: as §1, §2

[9] = tested on: Ruminococcus obeum ATCC 29714 "ROB.74"; experiment: Sugar-supported growth of commensal bacteria, ROB.74; conditions: 0.5% w/v sugar, 37° C., 18-24 hours, anaerobic; OD600 divided by OD600 with 0.5% w/v dextrose
Experimental: as §1, §2

[10] = tested on: Bifidobacterium longum DSM 20088 "BLO.83"; experiment: Sugar-supported growth of commensal bacteria, BLO.83; conditions: 0.5% w/v sugar, 37° C., 18-24 hours, anaerobic; OD600 divided by OD600 with 0.5% w/v dextrose
Experimental: as §1
Bacterial isolates were obtained from the American Type Culture Collection (ATCC) and Leibniz Institute DSMZ-German Institute of Microorganisms and Cell Cultures (DSMZ). Cultures of the Bacteroidetes Bacteroides caccae ATCC 43185 “BCA.26”, Bacteroides thetaiotaomicron ATCC 29741 “BTH.8”, Bacteroides cellulosilyticus DSM 14838 “BCE.71”, Parabacteroides distasonis ATCC 8503 “PDI.6” and Prevotella copri DSM 18205 “PCO.72”; the Clostridiales Clostridium scindens ATCC 35704 “CSC.32”, Dorea formicigenerans ATCC 27755 “DFO.36” and Ruminococcus obeum ATCC 29714 “ROB.74”; and the Bifidobacteria Bifidobacterium longum ATCC 15707 “BLO.16” and Bifidobacterium longum DSM 20088 “BLO.83”, were grown anaerobically in Chopped Meat Glucose broth (CMG, Anaerobe Systems), a pre-reduced enriched medium including lean ground beef, enzymatic digest of casein, yeast extract, potassium phosphate, dextrose, cysteine, hemin and Vitamin K1, for 18-48 hours at 37° C. Inocula were prepared by determining the optical density of each culture at […] (OD600) in a Costar 3370 polystyrene 96-well flat-bottom assay plate using a Biotek Synergy 2 plate reader with Gen5 2.0 All-In-One Microplate Reader Software according to manufacturer's protocol, and diluting the cells to OD600 0.01 final in defined and semi-defined media that were prepared without sugars. […]

SMILES | Average Normalized Growth (NGV), CSC.32 [1] | Average Normalized Growth (NGV), BCA.26 [2] | Average Normalized Growth (NGV), PCO.72 [3] | Average Normalized Growth (NGV), BCE.71 [4] | Average Normalized Growth (NGV), PDI.6 [5] | Average Normalized Growth (NGV), BTH.8 [6] | taxa or strains of the commensal panel whose growth was supported (panel of 10 commensals) | Average Normalized Growth (NGV), BLO.16 [7] | Average Normalized Growth (NGV), DFO.36 [8] | Average Normalized Growth (NGV), ROB.74 [9] | Average Normalized Growth (NGV), BLO.83 [10]
OC[C@H]1O[C@@H](O[C@@H]2[C@@H](CO)OC(O)(CO)[C@H]2O)[C@H](O)[C@@H](O)[C@H]1O (mixture of isomers) [lactulose] | − (<0.2) | ++ (0.6-1) | ++ (0.6-1) | ++ (0.6-1) | + (0.2-0.6) | − (<0.2) | supported growth of some strains from the taxa Bacteroidetes and Bifidobacteria | – | – | – | –
OC[C@H]1O[C@H](O[C@H]2[C@H](O)[C@@H](O)[C@H](O)O[C@@H]2CO)[C@H](O)[C@@H](O)[C@@H]1O [D (+) maltose] | − (<0.2) | + (0.2-0.6) | +++ (>1) | ++ (0.6-1) | ++ (0.6-1) | +++ (>1) | supported some commensals from the taxa Bacteroidetes, Firmicutes, including Lachnospiraceae, and Bifidobacteria | +++ (>1) | +++ (>1) | – | –
O=C[C@@H](O)[C@H](O)[C@H](O)CO [D (−) arabinose] | ++ (0.6-1) | ++ (0.6-1) | − (<0.2) | + (0.2-0.6) | − (<0.2) | ++ (0.6-1) | supported some commensals from the taxa Bacteroidetes and Firmicutes | − (<0.2) | − (<0.2) | ++ (0.6-1) | –
OC[C@@H](O)[C@@H](O)[C@H](O)[C@H](O)CO [D-mannitol] | + (0.2-0.6) | − (<0.2) | − (<0.2) | − (<0.2) | − (<0.2) | − (<0.2) | supported growth of CSC.32 alone among the panel of 10 commensals | − (<0.2) | – | – | –
O=C[C@@H](O)[C@@H](O)[C@H](O)[C@H](O)CO [D-mannose] | + (0.2-0.6) | +++ (>1) | − (<0.2) | +++ (>1) | +++ (>1) | +++ (>1) | supported some commensals from the taxa Bacteroidetes and Firmicutes | − (<0.2) | − (<0.2) | ++ (0.6-1) | –
OC[C@@H](O)[C@@H](O)[C@H](O)[C@@H](O)CO [D-sorbitol] | – | – | – | – | – | – | supported growth of CSC.32 alone among the panel of 10 commensals | – | – | – | –
O=C[C@H](O)[C@@H](O)[C@H](O)CO [D-xylose] | − (<0.2) | +++ (>1) | ++ (0.6-1) | ++ (0.6-1) | + (0.2-0.6) | +++ (>1) | supported some commensals from the taxa Bacteroidetes and Bifidobacteria | ++ (0.6-1) | − (<0.2) | − (<0.2) | –
O=C[C@H](O)[C@@H](O)[C@@H](O)CO [L-arabinose] | − (<0.2) | +++ (>1) | ++ (0.6-1) | ++ (0.6-1) | − (<0.2) | +++ (>1) | supported some commensals from the taxa Bacteroidetes, Firmicutes, including Lachnospiraceae, and Bifidobacteria | ++ (0.6-1) | +++ (>1) | – | − (<0.2)
C[C@H](O)[C@@H](O)[C@@H](O)[C@H](O)C=O [L-fucose] | − (<0.2) | +++ (>1) | − (<0.2) | + (0.2-0.6) | − (<0.2) | + (0.2-0.6) | supported some commensals from the taxa Bacteroidetes and Firmicutes | − (<0.2) | − (<0.2) | ++ (0.6-1) | –
O=C[C@H](O)[C@H](O)[C@H](O)CO [ribose] | +++ (>1) | − (<0.2) | − (<0.2) | + (0.2-0.6) | +++ (>1) | − (<0.2) | supported some commensals from the taxa Bacteroidetes and Firmicutes | − (<0.2) | +++ (>1) | − (<0.2) | –
OC[C@H]1O[C@H](O[C@]2(CCl)O[C@H](CCl)[C@@H](O)[C@@H]2O)[C@H](O)[C@@H](O)[C@H]1Cl [sucralose] | – | – | – | – | – | – | supported growth of PCO.72 alone among the panel of 10 commensals | – | – | – | –
OC[C@H]1O[C@@](CO)(O[C@H]2O[C@H](CO)[C@@H](O)[C@H](O)[C@H]2O)[C@@H](O)[C@@H]1O [sucrose] | – | – | – | – | – | – | supported some commensals from the taxa Bacteroidetes, Firmicutes, including Lachnospiraceae, and Bifidobacteria | – | – | – | –
